Reference: patent US6979686B1, “Substituted pyrazoles as p38 kinase inhibitors” (Pharmacia Corporation, priority 2001, dated 2005)
Like-named read-outs stand apart in the source and are kept apart here.

What was measured:
[1] = test system: TNF alpha, BALB/c mice injected with LPS; assay: Mouse model of LPS-induced TNF alpha production; type: in vivo; conditions: Table 6, mouse LPS; for mLPS 8 h percent inhibition: head '8 h'
Method: Mouse Model of LPS-induced TNF Alpha Production:
TNF alpha was induced in 10-12 week old BALB/c female mice by tail vein injection with 100 ng lipopolysaccharide (from S. Typhosa) in 0.2 ml saline. One hour later mice were bled from the retroorbital sinus and TNF concentrations in serum from clotted blood were quantified by ELISA.
Efficacy was determined at each time point as percent inhibition of serum TNF levels relative to LPS injected mice that received vehicle only.
In vivo assessment of the ability of the compounds to inhibit LPS-stimulated TNP release in the mouse is shown in the column identified as: • “Mouse LPS Model, % TNF inhib @ dose @ predose time” wherein in the dose is milligram per kilogram (mpk) administered by oral gavage and the predose time indicates the number of hours before LPS challenge when the compound is administered.

[2] = test system: TNF-α, U937 human histiocytic lymphoma cell line; assay: LPS stimulation of TNF production by U937 cells; type: cell-based; conditions: for inhibition at 1 µM: U-937, @ 1.0 uM
Procedure, shortened: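 U937 cells differentiated 24 h with 20 ng/ml PMA, rested 24-48 h, used at 2 million cells/ml. Compounds in 0.1% DMSO final; LPS (E. coli, 100 ng/ml final) stimulation for 4 h at 37° C. Released TNF-α measured by ELISA; IC50 (μM).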

human p38 kinase alpha = biological target: T1, human p38 kinase alpha (Homo sapiens, UniProt Q16539); assay: p38 kinase in vitro assay, phosphorylation of biotinylated PHAS-I with 32P-ATP; type: biochemical
T1 construct: GST (N, cleaved yes); made in house; host or cells: E. coli DH10B
T1 sequence (Q16539 whole entry): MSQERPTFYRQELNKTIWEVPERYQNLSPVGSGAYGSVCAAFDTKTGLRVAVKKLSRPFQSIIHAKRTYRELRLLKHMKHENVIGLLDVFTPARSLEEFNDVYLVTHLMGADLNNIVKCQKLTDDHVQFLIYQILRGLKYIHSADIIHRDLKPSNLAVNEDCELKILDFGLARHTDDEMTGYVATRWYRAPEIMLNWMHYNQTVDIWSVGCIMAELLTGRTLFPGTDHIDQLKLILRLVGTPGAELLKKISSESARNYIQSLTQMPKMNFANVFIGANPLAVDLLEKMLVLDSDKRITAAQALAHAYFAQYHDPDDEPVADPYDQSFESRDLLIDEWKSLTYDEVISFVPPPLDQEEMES

[3] = @ 1.0 uM, TNF production in human U937 cells stimulated with LPS
[4] = in vitro P38-alpha kinase inhibition, read-out: P38 alpha kinase IC50
[5] = Homo sapiens, U-937, TNF production, human U937 cells stimulated with LPS, read-out: U937 Cell IC50
[6] = TNF production, human U937 cells stimulated with LPS, read-out: U937 Cell IC50
[7] = in vitro P38-alpha kinase, read-out: P38 alpha kinase IC50
[8] = @ 10.0 uM, TNF production, U937 cells stimulated with LPS
[9] = Homo sapiens, TNF production, U937 cells stimulated with LPS, read-out: U937 Cell % inhib @ conc.
[10] = @ 1.0 uM, TNF production, U937 cells stimulated with LPS
[11] = @ 10.0 uM, TNF production, LPS-stimulated U937 cells
[12] = Homo sapiens, TNF production, LPS-stimulated U937 cells, read-out: U937 Cell % inhib @ conc.

SMILES: Fc1ccc(-c2n[nH]cc2-c2ccnc3ccccc23)cc1 [Example A-291]
- mLPS 8 h percent inhibition ([1]; dose 30, oral gavage): 36%

SMILES: Cc1cccc(-c2nn(C)cc2-c2ccnc(C)c2)c1 [Example A-235, 2-methyl-4-[1-methyl-3 (or 5)-(3-methylphenyl)-1H-pyrazol-4-yl]pyridine]
- inhibition in vivo at 30 mg/kg ([1]; 1 h before LPS, 30 mpk, oral gavage, read-out: mLPS 1 h, 30 mpk percent inhibition): 56%

SMILES: Fc1ccc(-c2n[nH]cc2-c2ccnc(NC3CCNCC3)c2)cc1 [Example A-277, 4-[3-(4-fluorophenyl)-1H-pyrazol-4-yl]-N-4-piperadinyl-2-pyridinamine]
- mLPS 8 h percent inhibition ([1]; dose 30, oral gavage): 33%

SMILES: Clc1ccc(-c2n[nH]cc2-c2ccncc2)cc1Cl [Example A-297, 4-[3-(3,4-dichlorophenyl)-1H-pyrazol-4-yl]pyridine]
- mLPS 8 h percent inhibition ([1]; dose 30, oral gavage): 89%

SMILES: CN(C)CCCNc1[nH]nc(-c2ccc(F)cc2)c1-c1ccncc1 [Example A-287, N′-[5-(4-fluorophenyl)-4-(4-pyridinyl)-1H-pyrazol-3-yl]-N,N-dimethyl-1,3-propanediamine]
- mLPS 8 h percent inhibition ([1]; dose 30, oral gavage): −24%

SMILES: CCN(CC)CCn1cc(-c2ccnc(NCc3ccc(F)cc3)c2)c(-c2ccc(F)cc2)n1 [Example A-279, 4-[1-[2-(diethylamino)ethyl]-3-(4-fluorophenyl)-1H-pyrazol-4-yl]-N-[(4-fluorophenyl)methyl]-2-pyridinamine]
- mLPS 8 h percent inhibition ([1]; dose 30, oral gavage): 64%

SMILES: Fc1ccc(-c2nn(CCN3CCOCC3)cc2-c2ccncc2)cc1 [Example A-216, 4-[2-[3-(4-fluorophenyl)-4-(4-pyridinyl)-1H-pyrazol-1-yl]ethyl]morpholine]
- mLPS 8 h percent inhibition ([1]; dose 30, oral gavage): 27%

SMILES: Cn1cc(-c2ccncc2)c(-c2cccc(F)c2)n1 [Example A-229, 4-[3-(3-fluorophenyl)-1-methyl-1H-pyrazol-4-yl]pyridine]
- mLPS 8 h percent inhibition ([1]; dose not given, oral gavage): 76%

SMILES: C#CCn1cc(-c2ccncc2)c(-c2ccc(F)cc2)n1 [Example A-294, 4-[3-(4-fluorophenyl)-1-(2-propynyl)-1H-pyrazol-4-yl]pyridine]
- mLPS 8 h percent inhibition ([1]; dose 30, oral gavage): 61%

SMILES: Cn1cc(-c2ccncc2)c(-c2ccc(F)c(F)c2)n1 [Example A-242, 4-[3-(3,4-difluorophenyl)-1-methyl-1H-pyrazol-4-yl]pyridine]
- mLPS 8 h percent inhibition ([1]; dose 30, oral gavage): 95%

SMILES: Cn1cc(-c2ccncc2)c(-c2ccc(I)cc2)n1 [Example A-251, 4-[3-(4-iodophenyl)-1-methyl-1H-pyrazol-4-yl]pyridine]
- mLPS 8 h percent inhibition ([1]; dose not given, oral gavage): 32%

SMILES: Fc1ccc(-c2n[nH]cc2-c2ccnc(F)c2)cc1 [Example A-249, 2-fluoro-4-[3-(4-fluorophenyl)-1H-pyrazol-4-yl]pyridine]
- mLPS 8 h percent inhibition ([1]; dose 30, oral gavage): 73%

SMILES: CC(NC(=O)c1cc(Cl)cc(Cl)c1)c1[nH]nc(-c2ccc(F)cc2)c1-c1ccncc1 (stereo not shown) [Example B-0675]
- U937 Cell % inhib @ conc. (uM) [2, 3]: 3.0% @
- IC50 (human p38 kinase alpha; [4]): 5420 nM

SMILES: CC(NS(C)(=O)=O)c1[nH]nc(-c2ccc(F)cc2)c1-c1ccncc1 (stereo not shown) [Example B-0573]
- IC50 ([2]; Homo sapiens, U-937, TNF production in human U937 cells stimulated with LPS, read-out: U937 Cell IC50): 1700 nM
- IC50 (human p38 kinase alpha; [4]): 360 nM

SMILES: CCNC(=O)NC(CCC(=O)NC)c1[nH]nc(-c2ccc(F)cc2)c1-c1ccncc1 (stereo not shown) [Example B-0883]
- IC50 [2, 5]: > 1000 nM
- IC50 (human p38 kinase alpha; [4]): 1060 nM

SMILES: Cc1c(-c2ccncc2)c(-c2ccc(F)cc2)nn1CC(=O)N(C)CCN(C)C [Example B-2375]
- IC50 [2, 6]: > 10000 nM
- P38 alpha kinase % inhib @ conc. (human p38 kinase alpha; @ 100.0 uM): 62.0% @

SMILES: O=C(NCc1[nH]nc(-c2ccc(F)cc2)c1-c1ccncc1)c1ccc(F)cc1 [Example B-0042]
- IC50 [2, 5]: 2760 nM
- inhibition at 1 µM (human p38 kinase alpha; @ 1.0 uM, read-out: P38 alpha kinase % inhib @ conc.): 94%

SMILES: O=C(NCCCc1[nH]nc(-c2ccc(F)cc2)c1-c1ccncc1)NC1CN2CCC1CC2 (stereo not shown) [Example B-1309]
- IC50 [2, 5]: > 1000 nM
- IC50 (human p38 kinase alpha; [7]): 45 nM

SMILES: COCCN(Cc1cccc(OC)c1)C(=O)Cn1nc(-c2ccc(F)cc2)c(-c2ccncc2)c1C [Example B-2394]
- U937 Cell IC50, uM or % inhib @ conc. (uM): % inhib [2, 8]: 22.0% @
- P38 alpha kinase IC50, uM or % inhib @ conc. (uM): % inhib (human p38 kinase alpha; @ 10.0 uM): 37.0% @

SMILES: CC(C)c1cc(C(C)C)c(C(=O)NC(C)c2[nH]nc(-c3ccc(F)cc3)c2-c2ccncc2)c(C(C)C)c1 (stereo not shown) [Example B-0497]
- inhibition at 1 µM ([2]; Homo sapiens, TNF production in human U937 cells stimulated with LPS, read-out: U937 Cell % inhib @ conc.): 31%
- IC50 (human p38 kinase alpha; [4]): 440 nM

SMILES: Cc1c(-c2ccncc2)c(-c2ccc(F)cc2)nn1CC(=O)N(CC(C)C)CC(C)C [Example B-2372]
- IC50 [2, 6]: > 10000 nM
- P38 alpha kinase % inhib @ conc. (human p38 kinase alpha; @ 100.0 uM): 55.0% @

SMILES: NS(=O)(=O)c1ccc(CNC(=O)NCCCc2[nH]nc(-c3ccc(F)cc3)c2-c2ccncc2)cc1 [Example B-1308]
- IC50 [2, 5]: > 1000 nM
- IC50 (human p38 kinase alpha; [7]): < 100 nM

SMILES: N#Cc1cccc(C(=O)NCCc2[nH]nc(-c3ccc(F)cc3)c2-c2ccncc2)c1 [Example B-1127]
- inhibition at 1 µM [2, 9]: 7%
- IC50 (human p38 kinase alpha; [4]): 710 nM

SMILES: CCOC(=O)COc1cccc(NC(=O)Cn2nc(-c3ccc(F)cc3)c(-c3ccncc3)c2C)c1 [Example B-2458]
- U937 Cell IC50, uM or % inhib @ conc. (uM): % inhib [2, 8]: 36.0% @
- P38 alpha kinase IC50, uM or % inhib @ conc. (uM): % inhib (human p38 kinase alpha; @ 10.0 uM): 83.0% @

SMILES: O=[N+]([O-])c1ccc(S(=O)(=O)NCc2[nH]nc(-c3ccc(F)cc3)c2-c2ccncc2)cc1 [Example B-0115]
- U937 Cell % inhib @ conc. [2, 10]: 2.0% @
- P38 alpha kinase % inhib @ conc. (human p38 kinase alpha; @ 1.0 uM): 47.0% @

SMILES: Cc1c(-c2ccncc2)c(-c2ccc(F)cc2)nn1CC(=O)N1CCC(N(C)C(=O)OC(C)(C)C)C1 (stereo not shown) [Example B-2389]
- U937 Cell IC50, uM or % inhib @ conc. (uM): % inhib [2, 8]: 29.0% @
- P38 alpha kinase IC50, uM or % inhib @ conc. (uM): % inhib (human p38 kinase alpha; @ 10.0 uM): 39.0% @

SMILES: O=C(NC(Cc1ccccc1)c1[nH]nc(-c2ccc(F)cc2)c1-c1ccncc1)C1CC1 (stereo not shown) [Example B-0837]
- IC50 [2, 6]: > 1000 nM
- IC50 (human p38 kinase alpha; [4]): 1960 nM

SMILES: COC(=O)[C@H](CCSC)NC(=O)Cn1nc(-c2ccc(F)cc2)c(-c2ccncc2)c1C [Example B-2324]
- U937 Cell % inhib @ conc. [2, 11]: 36.0% @
- P38 alpha kinase % inhib @ conc. (human p38 kinase alpha; @ 10.0 uM): 58.0% @

SMILES: O=S(=O)(NCCc1[nH]nc(-c2ccc(F)cc2)c1-c1ccncc1)c1cccc(Cl)c1Cl [Example B-1073]
- inhibition at 1 µM [2, 9]: 21%
- IC50 (human p38 kinase alpha; [4]): < 100 nM

SMILES: O=S(=O)(c1ccc(C(F)(F)F)cc1)N1CCC(c2[nH]nc(-c3ccc(F)cc3)c2-c2ccncc2)CC1 [Example B-1474]
- inhibition at 1 µM [2, 12]: 31%
- IC50 (human p38 kinase alpha; [7]): 1230 nM

SMILES: CCOC(=O)C(NC(=O)NCCc1[nH]nc(-c2ccc(F)cc2)c1-c1ccncc1)C(C)C (stereo not shown) [Example B-0976]
- U937 Cell % inhib @ conc. (uM) [2, 10]: 36.0% @
- P38 alpha kinase % inhib @ conc. (uM) (human p38 kinase alpha; @ 1.0 uM): 79.0% @

SMILES: CC(NC(=O)c1ccc(C(F)(F)F)cc1)c1[nH]nc(-c2ccc(F)cc2)c1-c1ccncc1 (stereo not shown) [Example B-0704]
- U937 Cell % inhib @ conc. (uM) [2, 3]: 29.0% @
- IC50 (human p38 kinase alpha; [4]): 2190 nM

SMILES: O=C(NC(Cc1ccccc1)c1[nH]nc(-c2ccc(F)cc2)c1-c1ccncc1)c1ccccc1 (stereo not shown) [Example B-0819]
- IC50 [2, 5]: > 1000 nM
- IC50 (human p38 kinase alpha; [4]): 1080 nM

SMILES: Cc1c(-c2ccncc2)c(-c2ccc(F)cc2)nn1CC(=O)NC(C)Cc1c[nH]c2ccccc12 (stereo not shown) [Example B-2328]
- U937 Cell % inhib @ conc. [2, 11]: 28.0% @
- P38 alpha kinase % inhib @ conc. (human p38 kinase alpha; @ 10.0 uM): 65.0% @

SMILES: O=C(NCCCc1[nH]nc(-c2ccc(F)cc2)c1-c1ccncc1)NCC1CC1 [Example B-1316]
- inhibition at 1 µM [2, 12]: 36%
- IC50 (human p38 kinase alpha; [7]): 26 nM

SMILES: Cc1n[nH]c(-c2ccc(Br)cc2)c1-c1ccncc1 [Example A-39]
- IC50 ([2]; Table 5, LPS-stimulated U937 cells, TNF-α, read-out: U937 Cell Assay IC50): 244 nM
- IC50 (human p38 kinase alpha; activated human p38 kinase alpha, PHAS-I substrate, 50 μM unlabeled ATP, read-out: p38 kinase IC50): 1100 nM

SMILES: Cc1c(-c2ccncc2)c(-c2ccc(F)cc2)nn1CC(=O)NCCCN1CCN(C)CC1 [Example B-2289]
- inhibition at 10 µM ([2]; Homo sapiens, U-937, @ 10.0 uM, TNF production, LPS-stimulated U937 cells, read-out: U937 Cell % inhib @ conc.): 30%
- IC50 (human p38 kinase alpha; [7]): 3000 nM

SMILES: COc1cc(NC(=O)CCNC(=O)Cn2nc(-c3ccc(F)cc3)c(-c3ccncc3)c2C)cc2ccccc12 [Example B-2298]
- IC50 [2, 6]: 4220 nM
- IC50 (human p38 kinase alpha; [7]): 290 nM
